Experiment [1] has as its target T1, panel of 442 kinases (Homo sapiens, UniProt Q13177).
T1 construct: purchased KINOMEscan
The format is binding. The conditions noted are these: Compound Concentration 10 µM. The source says: (§1) We assessed the selectivity of members of this scaffold using the KINOMEscan methodology across a near comprehensive panel of 442 kinases [[18,27]].

Experiment [2] addresses T2, panel of 442 kinases (Homo sapiens, UniProt Q9UL54).
T2 construct: purchased KINOMEscan
T2 sequence (Q9UL54 1-1235): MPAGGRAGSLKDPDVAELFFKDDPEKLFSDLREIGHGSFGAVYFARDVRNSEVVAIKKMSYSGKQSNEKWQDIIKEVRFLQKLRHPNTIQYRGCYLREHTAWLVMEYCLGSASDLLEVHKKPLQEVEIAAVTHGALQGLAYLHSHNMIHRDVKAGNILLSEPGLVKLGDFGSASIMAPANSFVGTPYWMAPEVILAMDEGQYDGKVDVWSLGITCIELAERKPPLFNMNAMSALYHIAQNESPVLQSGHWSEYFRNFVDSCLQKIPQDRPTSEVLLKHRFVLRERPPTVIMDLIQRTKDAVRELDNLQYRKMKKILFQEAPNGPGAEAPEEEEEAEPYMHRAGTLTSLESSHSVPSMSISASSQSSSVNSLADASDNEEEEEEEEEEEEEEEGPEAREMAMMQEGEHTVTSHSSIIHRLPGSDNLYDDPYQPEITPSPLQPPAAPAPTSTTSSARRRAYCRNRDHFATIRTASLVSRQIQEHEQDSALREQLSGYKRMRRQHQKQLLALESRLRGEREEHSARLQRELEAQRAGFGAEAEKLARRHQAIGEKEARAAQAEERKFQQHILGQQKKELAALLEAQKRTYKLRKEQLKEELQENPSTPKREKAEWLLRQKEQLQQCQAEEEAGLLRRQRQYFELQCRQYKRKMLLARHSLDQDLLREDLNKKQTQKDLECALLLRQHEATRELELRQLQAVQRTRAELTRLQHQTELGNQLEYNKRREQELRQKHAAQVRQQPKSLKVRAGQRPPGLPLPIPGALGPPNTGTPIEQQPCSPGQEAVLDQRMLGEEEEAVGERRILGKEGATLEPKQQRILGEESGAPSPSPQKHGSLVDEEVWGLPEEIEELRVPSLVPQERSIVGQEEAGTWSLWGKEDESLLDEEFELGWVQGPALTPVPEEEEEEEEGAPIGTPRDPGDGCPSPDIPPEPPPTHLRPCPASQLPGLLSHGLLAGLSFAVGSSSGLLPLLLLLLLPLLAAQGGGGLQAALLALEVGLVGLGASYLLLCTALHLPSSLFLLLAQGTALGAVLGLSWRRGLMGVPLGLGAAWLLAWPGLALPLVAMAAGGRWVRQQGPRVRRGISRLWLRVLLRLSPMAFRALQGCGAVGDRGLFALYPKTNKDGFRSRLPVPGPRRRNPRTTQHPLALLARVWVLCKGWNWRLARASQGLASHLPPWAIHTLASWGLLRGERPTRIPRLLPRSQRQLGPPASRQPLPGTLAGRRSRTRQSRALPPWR
The format is binding. Particulars: kinase TAOK2; compound concentration 10 µM.
Excerpt: as §1

T1 sequence (Q13177 whole entry): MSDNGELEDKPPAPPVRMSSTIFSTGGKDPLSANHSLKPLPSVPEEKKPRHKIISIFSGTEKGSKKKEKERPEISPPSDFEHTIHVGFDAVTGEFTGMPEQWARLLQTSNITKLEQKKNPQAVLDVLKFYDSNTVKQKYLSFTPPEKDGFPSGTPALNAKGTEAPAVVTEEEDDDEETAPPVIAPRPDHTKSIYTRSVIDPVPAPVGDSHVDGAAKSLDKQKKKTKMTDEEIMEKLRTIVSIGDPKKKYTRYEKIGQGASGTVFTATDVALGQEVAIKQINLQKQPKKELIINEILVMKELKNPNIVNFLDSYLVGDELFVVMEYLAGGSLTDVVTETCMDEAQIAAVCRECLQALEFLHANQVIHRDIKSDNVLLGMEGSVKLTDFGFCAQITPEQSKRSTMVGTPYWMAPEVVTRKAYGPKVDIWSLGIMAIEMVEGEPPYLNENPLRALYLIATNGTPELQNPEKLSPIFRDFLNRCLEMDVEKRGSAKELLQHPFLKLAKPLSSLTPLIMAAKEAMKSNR

For `COc1cc(C(=O)N2CCC(N3CCN(C)CC3)CC2)ccc1Nc1ncc2c(n1)N(C1CCCC1)c1ccccc1C(=O)N2C` [Compound 25, 11-cyclopentyl-2-((2-methoxy-4-(4-(4-methylpiperazin-1-yl)piperidine-1-carbonyl)phenyl)amino)-5-methyl-5H-benzo[e]pyrimido[5,4-b][1,4]diazepin-6(11H)-one], in experiment [1], the “KINOMEscan: PAK2” value came to 90. Besides, the “% Ctrl, TAOK2” value in experiment [2] is listed as 74 % Ctrl.
Regarding `COc1cc(C(=O)N2CCC(N3CCN(C)CC3)CC2)ccc1Nc1ncc2c(n1)N1CCc3cccc(c31)C(=O)N2C` [Compound 24], the “% Ctrl, TAOK2” value in experiment [2] is recorded as 100 % Ctrl.
For `COc1cc(C(=O)N2CCC(N3CCN(C)CC3)CC2)ccc1Nc1ncc2c(n1)N(C)c1ccccc1C(=O)N2C` [15 (LRRK2-IN-1)], the “KINOMEscan: PAK2” value in experiment [1] turned out to be 65. In addition, in experiment [2], the “% Ctrl, TAOK2” value is 65 % Ctrl.
Regarding `CCOc1cc(C(=O)N2CCC(N3CCN(C)CC3)CC2)ccc1Nc1ncc2c(n1)N(C1CCCC1)c1ccccc1C(=O)N2C` [Compound 26], the “KINOMEscan: PAK2” value in experiment [1] is 92. Moreover, the “% Ctrl, TAOK2” value in experiment [2] is on record as 78 % Ctrl.

The values are drawn from paper PMC3914206.
